# Measured values as given in patent publication US20210169897A1, “Concentrated Fulvestrant Compositions” (Nevakar Inc., priority 2017, published 2021).
# Read-outs that look alike come from different tables or passages of the source.
# Columns and labels:
# [1] = background, cited from earlier work
# [2] = Saturation solubility of fulvestrant in combinations of solvents/detergents (Table 2); format: physicochemical
# Method: To increase solubility, various other solvents, co-solvents, and surfactants were tested. For example, in some embodiments the monohydroxylated fatty acids (e.g., free ricinoleic acid) in the solvent were substituted with other lipid solvents such as castor oil or oleic acid. […] Here, some formulations including lipid solvents (especially in combination with ethanol and/or benzyl alcohol) can solubilize fulvestrant at a concentration higher than 60 mg/ml. Yet, most of such formulations capable of solubilizing fulvestrant at a higher concentration (e.g., higher than 60 mg/ml) require higher concentration of alcohols (e.g., higher than 30%, etc.), which may cause instability of the formulation (e.g., precipitation of fulvestrant over time, etc.). Moreover, some solvents also required substantial quantities of emulsifier (e.g., Cremophor™ (hydrogenated castor oil reacted with ethylene oxide)), which is not desirable as an ingredient for injection at the tested concentrations. Indeed, it is generally preferred that the fulvestrant compositions and solutions for injection are substantially free (i.e., less than 1% w/v, or less than 0.1% w/v, or less than 0.01% w/v) from surfactants, detergents, and/or emulsifiers.
compound,measurement,setting,value
C[C@]12CC[C@@H]3c4ccc(O)cc4C[C@@H](CCCCCCCCC[S+]([O-])CCCC(F)(F)C(F)(F)F)[C@H]3[C@@H]1CC[C@@H]2O (stereo partly drawn) [Fulvestrant],solubility,"physchem; Cremophor RH40, aqueous with cosolvent or surfactant or cyclodextrin",47.2 mg/mL
same,solubility,"physchem; N,N-dimethylacetamide (DCAM), organic solvent or mixture",306 mg/mL
same,solubility,"physchem; PEG 300, organic solvent or mixture",28.3 mg/mL
same,solubility,"physchem; PEG 400, organic solvent or mixture",24.8 mg/mL
same,solubility,"physchem; benzyl alcohol, organic solvent or mixture",269 mg/mL
same,solubility,"physchem; benzyl benzoate, organic solvent or mixture",3.9 mg/mL
same,solubility,"physchem; butyric acid, organic solvent or mixture",318 mg/mL
same,solubility,"physchem; castor oil, oil or lipid",21.2 mg/mL
same,solubility,"physchem; dimethylsulfoxide (DMSO), organic solvent or mixture",320 mg/mL
same,solubility,"physchem; ethanol, organic solvent or mixture",445 mg/mL
same,solubility,"physchem; heptanoic acid, organic solvent or mixture",154 mg/mL
same,solubility,"physchem; hexanoic acid, organic solvent or mixture",266 mg/mL
same,solubility,"physchem; octanoic acid, organic solvent or mixture",92.2 mg/mL
same,solubility,"physchem; oleic acid, oil or lipid",4.8 mg/mL
same,solubility,"physchem; olive oil, oil or lipid",0.4 mg/mL
same,solubility,"physchem; propanoic acid, organic solvent or mixture",319 mg/mL
same,solubility,"physchem; propylene glycol, organic solvent or mixture",39.1 mg/mL
same,solubility,"physchem; ricinoleic acid, oil or lipid",26 mg/mL
same,solubility,[1]; fulvestrant in benzyl alcohol,> 200 mg/mL
same,solubility,[1]; fulvestrant in ethanol,> 200 mg/mL
same,solubility,"[2]; 12.5% ethanol, 75% castor oil, 12.5% Cremophor RH 40 (% w/v), oil or lipid, thermodynamic from solid, No 11 (% w/v): 12.5% Ethanol, 75% Castor Oil, 12.5% Cremophor RH 40, read-out: Solubility",128 mg/mL
same,solubility,"[2]; 50% castor oil, 10% Lipoid E 80, 40% ethanol (% w/v), oil or lipid, thermodynamic from solid, No 12 (% w/v): 50% Castor Oil, 10% Lipoid E 80, 40% Ethanol, read-out: Solubility",49.3 mg/mL
same,solubility,"[2]; 50% castor oil, 25% ethanol, 25% Cremophor 40 (% w/v), oil or lipid, thermodynamic from solid, No 9 (% w/v): 50% Castor Oil, 25% Ethanol, 25% Cremophor 40, read-out: Solubility",134 mg/mL
same,solubility,"[2]; 50% oleic acid, 25% ethanol, 25% Cremophor 40 (% w/v), oil or lipid, thermodynamic from solid, No 8 (% w/v): 50% Oleic Acid, 25% Ethanol, 25% Cremophor 40, read-out: Solubility",130 mg/mL
same,solubility,"[2]; 60% castor oil, 18% BA, 13% ethanol, 9% Lipoid E 80 (% w/v), oil or lipid, thermodynamic from solid, No 14 (% w/v): 60% Castor Oil, 18% BA, 13% Ethanol, 9% Lipoid E 80, read-out: Solubility",63 mg/mL
same,solubility,"[2]; 70% castor oil, 20% oleic acid, 5% BA, 5% ethanol (% w/v), oil or lipid, thermodynamic from solid, No 16 (% w/v): 70% Castor Oil, 20% Oleic Acid, 5% BA, 5% Ethanol, read-out: Solubility",49.9 mg/mL
same,solubility,"[2]; 75% oleic acid, 12.5% ethanol, 12.5% Cremophor RH 40 (% w/v), oil or lipid, thermodynamic from solid, No 10 (% w/v): 75% Oleic Acid, 12.5% Ethanol, 12.5% Cremophor RH 40, read-out: Solubility",113 mg/mL
same,solubility,"[2]; 75% oleic acid, 25% castor oil (% w/v), oil or lipid, thermodynamic from solid, No 5 (% w/v): 75% Oleic Acid, 25% Castor Oil, read-out: Solubility",15.5 mg/mL
same,solubility,"[2]; 85% castor oil, 12% BA, 3% HP-B-CD (% w/v), oil or lipid, thermodynamic from solid, No 15 (% w/v): 85% Castor Oil, 12% BA, 3% HP-B-CD, read-out: Solubility",17.2 mg/mL
same,solubility,"[2]; No 13 (% w/v): 15% Ethanol, 15% Castor Oil, 15% Benzyl Alcohol, 10% Lipoid E 80",45.95 mg/mL
same,solubility,"[2]; oil or lipid, thermodynamic from solid, No 6 (% w/v): 49.5% Oleic Acid, 49.5% Castor Oil, 1% Polysorbate 20, read-out: Solubility",22.8 mg/mL
same,solubility,"[2]; oil or lipid, thermodynamic from solid, No 7 (% w/v): 74.5% Oleic Acid, 24.5% Castor Oil, 1% Polysorbate 20, read-out: Solubility",15.7 mg/mL
same,solubility,"[2]; oil or lipid, thermodynamic from solid, No 17 (% w/v): 10% Ethanol, 65% Castor Oil, 20% Oleic Acid, 5% Benzyl Alcohol, read-out: Solubility",68.8 mg/mL
same,solubility,"[2]; oil or lipid, thermodynamic from solid, No 18 (% w/v): 5% Ethanol, 65% Castor Oil, 20% Oleic Acid, 10% Benzyl Alcohol, read-out: Solubility",39.5 mg/mL
same,solubility,"[2]; oil or lipid, thermodynamic from solid, No 19 (% w/v): 22.5% Castor Oil, 67.5% Oleic Acid, 5% BA, 5% Ethanol, read-out: Solubility",47.3 mg/mL
same,solubility,"[2]; oil or lipid, thermodynamic from solid, No 20 (% w/v): 45% Oleic Acid, 45% Castor Oil, 5% Ethanol, 5% Benzyl Alcohol, read-out: Solubility",43.7 mg/mL
same,solubility,"[2]; oil or lipid, thermodynamic from solid, No 21 (% w/v): 5% Cremophor EL 35, 5% Ethanol, 5% Benzyl Alcohol, 85% Castor Oil, read-out: Solubility",24.4 mg/mL
same,solubility,"[2]; solvent mixture, oil or lipid, thermodynamic from solid, No 4 (% w/v): 25% Oleic Acid, 75% Castor Oil, read-out: Solubility",18.2 mg/mL
same,solubility,"[2]; solvent mixture, oil or lipid, thermodynamic from solid, No 3 (% w/v): 50% Castor Oil, 50% Oleic Acid, read-out: Solubility",20 mg/mL
same,solubility,"[2]; solvent/detergent mixture, oil or lipid, thermodynamic from solid, No 1 (% w/v): 99% Oleic Acid, 1% Poly. 20, read-out: Solubility",4.08 mg/mL
same,solubility,"[2]; solvent/detergent mixture, oil or lipid, thermodynamic from solid, No 2 (% w/v): 99% Castor Oil, 1% Poly. 20, read-out: Solubility",23.2 mg/mL
same,solubility,"[2]; solvent/detergent mixture, oil or lipid, thermodynamic from solid, No 22 (% w/v): 5% HS 15, 5% Ethanol, 5% Benzyl Alcohol, 85% Castor Oil, read-out: Solubility",39.2 mg/mL
same,solubility,"[2]; solvent/detergent mixture, oil or lipid, thermodynamic from solid, No 23 (% w/v): 5% Cremophor RH 40, 5% Ethanol, 5% Benzyl Alcohol, 85% Castor Oil, read-out: Solubility",38 mg/mL
same,solubility,"[2]; solvent/detergent mixture, oil or lipid, thermodynamic from solid, No 24 (% w/v): 44.5% Oleic Acid, 44.5% Castor Oil, 5% Ethanol, 5% Benzyl Alcohol, 1% Poly. 20, read-out: Solubility",51.9 mg/mL
same,solubility,"[2]; solvent/detergent mixture, oil or lipid, thermodynamic from solid, No 25 (% w/v): 67% Oleic Acid, 22% Castor Oil, 5% Ethanol, 5% Benzyl Alcohol, 1% Poly. 20, read-out: Solubility",41 mg/mL
